Assay results reported in the supplement of paper PMC10307832.

How the values were obtained:
Experiment in all cases: relative viability (nuclei count vs DMSO), 5 days (fraction); higher = more cells survive
[1] = tested on: NCI-H1355
Procedure, shortened: (§1)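 Values are medians from duplicate plates. Each reflects relative viability, defined as the nuclei count of treated wells over that of vehicle wells. Lung cancer cell lines in 1536-well plates were pin-tool dosed one day after seeding with one drug alone or with a fixed anchor-drug dose plus five library-drug doses (not always all listed) in √10 steps, then fixed, stained and imaged at 4× after 5 days.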

[2] = tested on: ABC-1
Procedure, shortened: as §1

[3] = tested on: NCI-H1993
Procedure, shortened: as §1

[4] = tested on: 201T
Procedure, shortened: as §1

[5] = tested on: NCI-H322M
Procedure, shortened: as §1

[6] = tested on: NCI-H2170
Procedure, shortened: as §1

[7] = tested on: HCC-44
Procedure, shortened: as §1

[8] = tested on: NCI-H647
Procedure, shortened: as §1

[9] = tested on: NCI-H1395
Procedure, shortened: as §1

[10] = tested on: NCI-H661
Procedure, shortened: as §1

[11] = tested on: NCI-H2347
Procedure, shortened: as §1

## O=c1[nH]c2ccccc2n1C1CCN(CCCC(c2ccc(F)cc2)c2ccc(F)cc2)CC1 [Pimozide] + Nc1ncn([C@H]2C[C@H](O)[C@@H](CO)O2)c(=O)n1 [Decitabine] (partner 2 µM)
[1]; first compound 0.08 µM
  relative viability: 0.345
[1]; first compound 0.253 µM
  relative viability: 0.332
[1]; first compound 0.8 µM
  relative viability: 0.339
[1]; first compound 2.53 µM
  relative viability: 0.339
[1]; first compound 8 µM
  relative viability: 0.337
[2]; first compound 0.08 µM
  relative viability: 1.18
[2]; first compound 0.253 µM
  relative viability: 0.831
[2]; first compound 0.8 µM
  relative viability: 1.22
[2]; first compound 2.53 µM
  relative viability: 1.08
[2]; first compound 8 µM
  relative viability: 1.02
[3]; first compound 0.08 µM
  relative viability: 0.561
[3]; first compound 0.253 µM
  relative viability: 0.56
[3]; first compound 0.8 µM
  relative viability: 0.566
[3]; first compound 2.53 µM
  relative viability: 0.556
[3]; first compound 8 µM
  relative viability: 0.642
[4]; first compound 0.08 µM
  relative viability: 0.827
[4]; first compound 0.253 µM
  relative viability: 0.846
[4]; first compound 0.8 µM
  relative viability: 0.829
[4]; first compound 2.53 µM
  relative viability: 0.844
[4]; first compound 8 µM
  relative viability: 0.711
[5]; first compound 0.08 µM
  relative viability: 0.581
[5]; first compound 0.253 µM
  relative viability: 0.705
[5]; first compound 0.8 µM
  relative viability: 0.719
[5]; first compound 2.53 µM
  relative viability: 0.772
[5]; first compound 8 µM
  relative viability: 0.632
[6]; first compound 0.08 µM
  relative viability: 0.43
[6]; first compound 0.253 µM
  relative viability: 0.453
[6]; first compound 0.8 µM
  relative viability: 0.432
[6]; first compound 2.53 µM
  relative viability: 0.477
[6]; first compound 8 µM
  relative viability: 0.454
[7]; first compound 0.08 µM
  relative viability: 1.01
[7]; first compound 0.253 µM
  relative viability: 0.983
[7]; first compound 0.8 µM
  relative viability: 0.843
[7]; first compound 2.53 µM
  relative viability: 0.935
[7]; first compound 8 µM
  relative viability: 0.919
[8]; first compound 0.08 µM
  relative viability: 0.37
[8]; first compound 0.253 µM
  relative viability: 0.363
[8]; first compound 0.8 µM
  relative viability: 0.392
[8]; first compound 2.53 µM
  relative viability: 0.442
[8]; first compound 8 µM
  relative viability: 0.508
[9]; first compound 0.08 µM
  relative viability: 0.692
[9]; first compound 0.253 µM
  relative viability: 0.74
[9]; first compound 0.8 µM
  relative viability: 0.633
[9]; first compound 2.53 µM
  relative viability: 0.691
[9]; first compound 8 µM
  relative viability: 0.637
[10]; first compound 0.08 µM
  relative viability: 0.564
[10]; first compound 0.253 µM
  relative viability: 0.581
[10]; first compound 0.8 µM
  relative viability: 0.48
[10]; first compound 2.53 µM
  relative viability: 0.497
[10]; first compound 8 µM
  relative viability: 0.495
[11]; first compound 0.08 µM
  relative viability: 0.651
[11]; first compound 0.253 µM
  relative viability: 0.589
